# Measured values published in US12540131B2 (Merck Sharp & Dohme LLC, priority 2019, dated 2026).
# Target: GST tagged truncated human mutant G2019S LRRK2 (Homo sapiens (Human), UniProt Q5S007, G2019S)
# Assay: LRRK2 Km ATP LanthaScreen Assay
# Assay type: biochemical
# Conditions: G2019S LRRK2, 134 μM ATP (Km ATP), mean values
# Method in brief: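 Enzyme (GST-tagged, truncated) was preincubated with compound for 15 min at RT in 50 mM Tris pH 8.5, 10 mM MgCl2, 0.01% Brij-35, 1 mM EGTA, 2 mM DTT and 0.05 mM orthovanadate. Fluorescein-LRRKtide and 134 μM ATP (Km) were then added for 90 min. EDTA and Tb-anti-pERM antibody stopped the reaction; the TR-FRET 520/495 ratio gave 4-parameter IC50s, reported as mean pIC50.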
# GST tagged truncated human mutant G2019S LRRK2, sequence (Q5S007 970-2527 G2019S): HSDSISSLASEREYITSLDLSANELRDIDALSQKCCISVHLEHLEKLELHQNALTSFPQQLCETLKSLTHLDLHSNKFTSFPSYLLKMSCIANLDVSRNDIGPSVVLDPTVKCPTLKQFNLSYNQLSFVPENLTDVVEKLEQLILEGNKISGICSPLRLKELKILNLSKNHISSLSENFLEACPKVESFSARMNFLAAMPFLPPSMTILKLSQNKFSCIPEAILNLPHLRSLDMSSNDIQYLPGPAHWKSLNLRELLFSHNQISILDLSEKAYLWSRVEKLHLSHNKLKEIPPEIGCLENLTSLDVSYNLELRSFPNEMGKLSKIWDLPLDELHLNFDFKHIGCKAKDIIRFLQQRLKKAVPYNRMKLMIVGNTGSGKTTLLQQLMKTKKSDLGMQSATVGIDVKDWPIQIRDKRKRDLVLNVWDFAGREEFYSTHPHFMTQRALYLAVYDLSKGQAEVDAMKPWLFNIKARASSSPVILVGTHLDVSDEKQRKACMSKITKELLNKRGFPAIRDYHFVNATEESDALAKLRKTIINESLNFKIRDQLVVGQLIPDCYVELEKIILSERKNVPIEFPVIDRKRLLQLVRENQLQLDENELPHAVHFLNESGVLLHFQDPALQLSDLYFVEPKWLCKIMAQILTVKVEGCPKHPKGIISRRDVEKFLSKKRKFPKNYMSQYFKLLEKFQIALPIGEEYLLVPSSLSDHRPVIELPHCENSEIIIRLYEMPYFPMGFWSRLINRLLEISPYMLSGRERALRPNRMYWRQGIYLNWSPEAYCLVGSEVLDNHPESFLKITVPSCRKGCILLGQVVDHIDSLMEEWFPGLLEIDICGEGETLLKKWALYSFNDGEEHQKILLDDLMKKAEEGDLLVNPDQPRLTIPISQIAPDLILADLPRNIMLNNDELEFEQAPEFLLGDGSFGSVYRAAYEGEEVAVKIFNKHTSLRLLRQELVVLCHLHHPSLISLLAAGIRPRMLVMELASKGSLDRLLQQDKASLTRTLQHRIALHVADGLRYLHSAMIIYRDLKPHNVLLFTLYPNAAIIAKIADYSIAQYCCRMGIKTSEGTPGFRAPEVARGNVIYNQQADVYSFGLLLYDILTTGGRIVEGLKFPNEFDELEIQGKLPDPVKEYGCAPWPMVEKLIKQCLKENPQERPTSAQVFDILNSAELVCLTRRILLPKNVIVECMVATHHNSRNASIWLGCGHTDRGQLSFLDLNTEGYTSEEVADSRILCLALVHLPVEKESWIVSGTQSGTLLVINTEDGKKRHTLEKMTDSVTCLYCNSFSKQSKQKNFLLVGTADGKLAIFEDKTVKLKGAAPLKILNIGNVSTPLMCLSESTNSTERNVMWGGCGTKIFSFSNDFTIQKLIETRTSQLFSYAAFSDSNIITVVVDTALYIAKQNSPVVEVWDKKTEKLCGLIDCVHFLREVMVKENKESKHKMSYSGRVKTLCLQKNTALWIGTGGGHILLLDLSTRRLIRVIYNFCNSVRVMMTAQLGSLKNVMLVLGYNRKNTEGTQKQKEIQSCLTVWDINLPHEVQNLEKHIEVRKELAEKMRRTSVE
row,SMILES,LRRK2 pIC50
1,"CC1OCC1N1CCC(c2cc3nc(Nc4cnn(CC(C)(C)O)c4Cl)ncc3cc2Cl)CC1 (single isomer, unassigned) [Ex-4.75, (2R,3R) or (2S,3S) or (2S,3R) or (2R,3S) 1-[5-chloro-4-({6-chloro-7-[1-(2-methyloxetan-3-yl)piperidin-4-yl]quinazolin-2-yl}amino)-1H-pyrazol-1-yl]-2-methylpropan-2-ol]",8.14
2,"Cc1c(Nc2ncc3cc(Cl)c(C4CCN(C[C@H](O)c5ccc(F)cc5)CC4)cc3n2)cnn1C1CC1 [Ex-4.213, (1R)-2-(4-{6-chloro-2-[(1-cyclopropyl-5-methyl-1H-pyrazol-4-yl)amino]quinazolin-7-yl}piperidin-1-yl)-1-(4-fluorophenyl)ethan-1-ol]",8.50
3,"Cc1cc2cnc(Nc3cnn(C4CC4)c3Cl)nc2cc1C1CCC(C)(O)CC1 (stereo not drawn) [Ex-2.64, cis- or trans-4-{2-[(5-chloro-1-cyclopropyl-1H-pyrazol-4-yl)amino]-6-methylquinazolin-7-yl}-1-methylcyclohexan-1-ol]",9.02
4,"CC(n1ncc(Nc2ncc3cc(Cl)c([C@H]4CCN(C)C[C@@H]4F)cc3n2)c1Cl)C(C)(C)O (single isomer, unassigned) [Ex-4.66, (R)(3S,4S) or (R)(3R,4R) or (S)(3S,4S) or (S)(3R,4R) 3-(5-chloro-4-{[6-chloro-7-(3-fluoro-1-methylpiperidin-4-yl)quinazolin-2-yl]amino}-1H-pyrazol-1-yl)-2-methylbutan-2-ol]",8.70
5,"N#Cc1cc2cnc(Nc3cnn(C4CC4)c3Cl)nc2cc1C1CCN(C2COC2)CC1 [Ex-6.3, 2-((5-chloro-1-cyclopropyl-1H-pyrazol-4-yl)amino)-7-(1-(oxetan-3-yl)piperidin-4-yl)quinazoline-6-carbonitrile]",9.07
6,"O[C@H]1COC[C@H]1N1CC[C@H](c2cc3nc(Nc4cnn(C56CC(C5)C6)c4)ncc3cc2Cl)[C@@H](F)C1 (single isomer, unassigned) [Ex-4.156, (3S,4S)(3S,4S) or (3S,4S)(3R,4R) or (3R,4R)(3S,4S) or (3R,4R)(3R,4R) 4-[4-(2-{[1-(bicyclo[1.1.1]pentan-1-yl)-1H-pyrazol-4-yl]amino}-6-chloroquinazolin-7-yl)-3-fluoropiperidin-1-yl]oxolan-3-ol]",>9.20
7,"Cc1c(Nc2ncc3cc(Cl)c(C4CCN([C@H]5COC[C@H]5O)CC4)cc3n2)cnn1C1CC1 (single isomer, unassigned) [Ex-4.132, (3S,4S) or (3R,4R) 4-(4-{6-chloro-2-[(1-cyclopropyl-5-methyl-1H-pyrazol-4-yl)amino]quinazolin-7-yl}piperidin-1-yl)oxolan-3-ol]",>9.20
8,"N#CC1CCC(N2CC[C@@H](c3cc4nc(Nc5cnn(C6CC6)c5Cl)ncc4cc3Cl)[C@H](F)C2)C1 (single isomer, unassigned) [Ex-4.108, (1R,3S)-3-((3S,4S) or (1S,3R)-3-((3S,4S) or (1R,3R)-3-((3S,4S) or (1S,3S)-3-((3S,4S) or (1R,3S)-3-((3R,4R) or (1S,3R)-3-((3R,4R) or (1R,3R)-3-((3R,4R) or 1S,3S)-3-((3R,4R) 4-(6-chloro-2-((5-chloro-1-cyclopropyl-1H-pyrazol-4-yl)amino)quinazolin-7-yl)-3-fluoropiperidin-1-yl)cyclopentane-1-carbonitrile]",8.49

# Same assay, conditions: G2019S LRRK2, 134 μM ATP (Km ATP), mean values; read-out: LRRK2 pIC50 (converted)
row,SMILES,IC50
1,"CC(C)(O)CN1CCC(c2cc3nc(Nc4cnn(C5CC5)c4)ncc3cc2Cl)C1 (single isomer, unassigned) [Ex-1.4, (S) or (R) 1-(3-(6-chloro-2-((1-cyclopropyl-1H-pyrazol-4-yl)amino)quinazolin-7-yl)pyrrolidin-1-yl)-2-methylpropan-2-ol]",0.024 µM
